From the supplement of paper PMC10627819

What was measured:
[1] = test system: S. aureus Newman; experiment: fitness (endpoint OD595 vs no drug) (fraction); higher = more growth
Summary of the method: (§1)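 In 384-well plates at 37 °C, cultures began at OD595 0.01 in 30 µl, with 55 µl used for S. pneumoniae. OD595 readings every 30 min for 14 h were corrected by the first reading. Fitness divides the stationary-phase transition optical density by the robust mean of no-drug control wells. The result is capped at 1.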

[2] = test system: S. pneumoniae D39V; experiment: as above
Summary of the method: as §1

[3] = test system: B. subtilis 168; experiment: Bliss interaction score (quartile over a dose matrix) (fitness difference); higher = more antagonism (negative = synergy)
Summary of the method: (§2)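 At entry into stationary phase, OD595 was recorded and divided by the robust mean of the no-drug wells on that plate, with any value above 1 set to 1. This gives the fitness measure used throughout. Single-drug fitness was inferred from combination data, and the Bliss score, observed minus product-expected fitness, is shown as quartiles across technical, biological and donor/recipient replicates.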

[4] = test system: S. aureus Newman; experiment: as above
Summary of the method: as §2

[5] = test system: S. aureus DSM 20231; experiment: as above
Summary of the method: as §2

[6] = test system: S. pneumoniae D39V; experiment: as above
Summary of the method: as §2
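Wherever Bliss interaction score (quartile over a dose matrix) is given: first quartile when negative (synergy) and third quartile when positive (antagonism).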

O=C(O)c1cn(C2CC2)c2cc(N3CCNCC3)c(F)cc2c1=O [Ciprofloxacin] + Cn1nnc(-c2ccc(-c3ccc(N4C[C@H](CO)OC4=O)cc3F)cn2)n1 [Tedizolid]
fitness
Settings	partner 0.03125 µg/mL	partner 0.0625 µg/mL	partner 0.125 µg/mL	partner 0.25 µg/mL	partner 0.5 µg/mL
[1], first compound 0.0375 µg/mL	–	–	0.633	–	–
[1], first compound 0.075 µg/mL	–	0.56	0.592	0.423	–
[1], first compound 0.15 µg/mL	–	–	–	0.13	–
[2], first compound 0.125 µg/mL	0.935	0.95	0.771	0.331	0.102
[2], first compound 0.25 µg/mL	0.913	0.945	0.703	–	–
[2], first compound 0.5 µg/mL	0.828	0.889	–	0.292	0.0949

[2], first compound 0.25 µg/mL, one replicate
Settings	fitness
partner 0.25 µg/mL	0.257
partner 0.5 µg/mL	0.0574

Settings	Bliss interaction score
[3]	0.26
[4]	0.0978
[5]	0.0744
[6]	-0.0691

O=C(O)c1cn(C2CC2)c2cc(N3CCNCC3)c(F)cc2c1=O [Ciprofloxacin] + CN[C@H](CC(C)C)C(=O)N[C@H]1C(=O)N[C@@H](CC(N)=O)C(=O)N[C@H]2C(=O)N[C@H]3C(=O)N[C@H](C(=O)N[C@H](C(=O)O)c4cc(O)cc(O)c4-c4cc3ccc4O)[C@H](O)c3ccc(c(Cl)c3)Oc3cc2cc(c3O[C@@H]2O[C@H](CO)[C@@H](O)[C@H](O)[C@H]2O[C@H]2C[C@](C)(N)[C@H](O)[C@H](C)O2)Oc2ccc(cc2Cl)[C@H]1O [Vancomycin]
Settings	fitness
[1], first compound 0.0375 µg/mL, partner 0.1875 µg/mL	0.75
[1], first compound 0.0375 µg/mL, partner 0.375 µg/mL	0.77
[1], first compound 0.0375 µg/mL, partner 0.75 µg/mL	0.725
[1], first compound 0.075 µg/mL, partner 0.1875 µg/mL	0.718
[1], first compound 0.075 µg/mL, partner 0.375 µg/mL	0.682
[1], first compound 0.075 µg/mL, partner 0.75 µg/mL	0.663
[1], first compound 0.15 µg/mL, partner 0.1875 µg/mL	0.07
[1], first compound 0.15 µg/mL, partner 0.375 µg/mL	0.0567
[1], first compound 0.15 µg/mL, partner 0.75 µg/mL	0.0797
[2], first compound 0.125 µg/mL, partner 0.03125 µg/mL	0.943
[2], first compound 0.125 µg/mL, partner 0.0625 µg/mL	0.881
[2], first compound 0.125 µg/mL, partner 0.125 µg/mL	0.885
[2], first compound 0.125 µg/mL, partner 0.25 µg/mL	0.0814
[2], first compound 0.125 µg/mL, partner 0.5 µg/mL	0.034
[2], first compound 0.25 µg/mL, partner 0.03125 µg/mL	0.845
[2], first compound 0.25 µg/mL, partner 0.0625 µg/mL	0.826
[2], first compound 0.25 µg/mL, partner 0.125 µg/mL	0.82
[2], first compound 0.5 µg/mL, partner 0.03125 µg/mL	0.58
[2], first compound 0.5 µg/mL, partner 0.0625 µg/mL	0.585
[2], first compound 0.5 µg/mL, partner 0.25 µg/mL	0.158
[2], first compound 0.5 µg/mL, partner 0.5 µg/mL	0.0552

[2], first compound 0.25 µg/mL, one replicate
Settings	fitness
partner 0.25 µg/mL	0.0819
partner 0.5 µg/mL	0.0016

Settings	Bliss interaction score
[3]	-0.0465
[4]	-0.0715
[5]	0.0479
[6]	-0.106

O=C(O)c1cn(C2CC2)c2cc(N3CCNCC3)c(F)cc2c1=O [Ciprofloxacin] + CCCCCCCCCC(=O)N[C@@H]1[C@H]([C@@H]([C@H](O[C@H]1OC2=C3C=C4C=C2OC5=C(C=C(C=C5)[C@H]([C@H]6C(=O)N[C@@H](C7=C(C(=CC(=C7)O)OC8[C@H]([C@H]([C@@H]([C@H](O8)CO)O)O)O)C9=C(C=CC(=C9)[C@H](C(=O)N6)NC(=O)[C@@H]4NC(=O)[C@@H]1C2=CC(=CC(=C2)OC2=C(C=CC(=C2)[C@H](C(=O)N[C@H](CC2=CC(=C(O3)C=C2)Cl)C(=O)N1)N)O)O)O)C(=O)O)O[C@H]1[C@@H]([C@H]([C@@H]([C@H](O1)CO)O)O)NC(=O)C)Cl)CO)O)O [Teicoplanin]
fitness, [1], main component drawn
Settings	first compound 0.0375 µg/mL	first compound 0.075 µg/mL	first compound 0.15 µg/mL
partner 0.1562 µg/mL	0.681	0.629	0.0421
partner 0.3125 µg/mL	0.713	0.626	0.0116
partner 0.625 µg/mL	0.608	0.534	0.0117

fitness, [1], one replicate, main component drawn
Settings	first compound 0.078 µg/mL	first compound 0.156 µg/mL	first compound 0.312 µg/mL
partner 0.62 µg/mL	0.535	0.0341	0.036
partner 1.24 µg/mL	0.372	0.0368	0.0337
partner 2.48 µg/mL	0.0816	0.0702	0.0565

main component drawn
Settings	Bliss interaction score
[3]	-0.1
[4]	-0.0935
[5]	0.0835
[6]	-0.063

CO/N=C(\C(=O)N[C@@H]1C(=O)N2C(C(=O)O)=C(COC(N)=O)CS[C@H]12)c1ccco1 [Cefuroxime] + CCCCCCCCCC(=O)N[C@@H]1[C@H]([C@@H]([C@H](O[C@H]1OC2=C3C=C4C=C2OC5=C(C=C(C=C5)[C@H]([C@H]6C(=O)N[C@@H](C7=C(C(=CC(=C7)O)OC8[C@H]([C@H]([C@@H]([C@H](O8)CO)O)O)O)C9=C(C=CC(=C9)[C@H](C(=O)N6)NC(=O)[C@@H]4NC(=O)[C@@H]1C2=CC(=CC(=C2)OC2=C(C=CC(=C2)[C@H](C(=O)N[C@H](CC2=CC(=C(O3)C=C2)Cl)C(=O)N1)N)O)O)O)C(=O)O)O[C@H]1[C@@H]([C@H]([C@@H]([C@H](O1)CO)O)O)NC(=O)C)Cl)CO)O)O [Teicoplanin]
fitness, [1], one replicate, main component drawn
Settings	first compound 0.04875 µg/mL	first compound 0.0975 µg/mL	first compound 0.195 µg/mL
partner 0.1562 µg/mL	≥ 1	0.968	0.888
partner 0.3125 µg/mL	0.991	0.968	0.953
partner 0.625 µg/mL	≥ 1	0.977	0.973

main component drawn
Settings	Bliss interaction score
[3]	-0.0964
[4]	0.0304
[5]	0.15
[6]	-0.0352

CO/N=C(\C(=O)N[C@@H]1C(=O)N2C(C(=O)O)=C(COC(N)=O)CS[C@H]12)c1ccco1 [Cefuroxime] + Cn1nnc(-c2ccc(-c3ccc(N4C[C@H](CO)OC4=O)cc3F)cn2)n1 [Tedizolid]
fitness, [1], one replicate
Settings	first compound 0.04875 µg/mL	first compound 0.0975 µg/mL	first compound 0.195 µg/mL
partner 0.0625 µg/mL	0.614	0.641	0.517
partner 0.125 µg/mL	0.0599	0.0707	0.0587
partner 0.25 µg/mL	0.496	0.513	0.425

Settings	Bliss interaction score
[3]	0.136
[4]	0.259
[5]	-0.223
[6]	0.026

CO/N=C(\C(=O)N[C@@H]1C(=O)N2C(C(=O)O)=C(COC(N)=O)CS[C@H]12)c1ccco1 [Cefuroxime] + CN[C@H](CC(C)C)C(=O)N[C@H]1C(=O)N[C@@H](CC(N)=O)C(=O)N[C@H]2C(=O)N[C@H]3C(=O)N[C@H](C(=O)N[C@H](C(=O)O)c4cc(O)cc(O)c4-c4cc3ccc4O)[C@H](O)c3ccc(c(Cl)c3)Oc3cc2cc(c3O[C@@H]2O[C@H](CO)[C@@H](O)[C@H](O)[C@H]2O[C@H]2C[C@](C)(N)[C@H](O)[C@H](C)O2)Oc2ccc(cc2Cl)[C@H]1O [Vancomycin]
fitness, [1], one replicate
Settings	first compound 0.04875 µg/mL	first compound 0.0975 µg/mL	first compound 0.195 µg/mL
partner 0.1875 µg/mL	0.934	0.974	0.943
partner 0.375 µg/mL	0.93	0.995	0.925
partner 0.75 µg/mL	0.975	0.988	0.926

Settings	Bliss interaction score
[3]	-0.0941
[4]	0.0418
[5]	0.14
[6]	-0.0597
